Experiments:
[1] = molecular target: T1, Peroxisome proliferator-activated receptor alpha (Homo sapiens, UniProt Q07869); assay: Agonist activity against human Peroxisome proliferator activated receptor alpha receptor in CV-1 cell was determined; type: functional, cell-based
T1 sequence (Q07869 whole entry): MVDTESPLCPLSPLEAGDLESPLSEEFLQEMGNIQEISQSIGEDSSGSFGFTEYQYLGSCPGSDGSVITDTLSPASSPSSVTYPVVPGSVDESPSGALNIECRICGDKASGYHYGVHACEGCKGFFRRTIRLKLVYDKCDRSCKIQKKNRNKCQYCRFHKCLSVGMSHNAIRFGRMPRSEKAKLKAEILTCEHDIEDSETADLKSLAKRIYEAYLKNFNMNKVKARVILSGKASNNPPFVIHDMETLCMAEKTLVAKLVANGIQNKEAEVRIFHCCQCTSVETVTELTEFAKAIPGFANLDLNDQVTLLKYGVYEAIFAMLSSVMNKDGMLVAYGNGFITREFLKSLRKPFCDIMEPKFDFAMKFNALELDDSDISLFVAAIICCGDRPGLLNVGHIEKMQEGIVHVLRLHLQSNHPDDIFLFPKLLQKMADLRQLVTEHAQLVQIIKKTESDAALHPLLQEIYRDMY

[2] = molecular target: T2, Peroxisome proliferator-activated receptor gamma (Homo sapiens, UniProt P37231); assay: Agonist activity against human Peroxisome proliferator activated receptor gamma receptor in CV-1 cell was determined; type: functional, cell-based
T2 sequence (P37231 whole entry): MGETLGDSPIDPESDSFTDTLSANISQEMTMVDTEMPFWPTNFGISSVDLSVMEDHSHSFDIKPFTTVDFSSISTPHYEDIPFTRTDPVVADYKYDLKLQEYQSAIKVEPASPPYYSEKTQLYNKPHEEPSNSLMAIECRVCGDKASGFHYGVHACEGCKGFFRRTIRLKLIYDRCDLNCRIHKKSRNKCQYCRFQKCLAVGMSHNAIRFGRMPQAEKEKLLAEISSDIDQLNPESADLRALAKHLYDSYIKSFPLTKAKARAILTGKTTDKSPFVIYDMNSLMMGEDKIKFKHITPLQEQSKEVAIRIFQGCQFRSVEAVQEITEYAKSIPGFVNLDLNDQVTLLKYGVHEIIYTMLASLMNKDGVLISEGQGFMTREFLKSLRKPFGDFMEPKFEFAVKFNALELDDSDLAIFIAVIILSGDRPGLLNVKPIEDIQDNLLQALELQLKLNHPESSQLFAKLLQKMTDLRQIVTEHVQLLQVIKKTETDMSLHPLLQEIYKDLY

[3] = molecular target: T3, Peroxisome proliferator-activated receptor delta (Homo sapiens, UniProt Q03181); assay: Agonist activity against human PPAR delta receptor in CV-1 cell was determined; type: functional, cell-based
T3 sequence (Q03181 whole entry): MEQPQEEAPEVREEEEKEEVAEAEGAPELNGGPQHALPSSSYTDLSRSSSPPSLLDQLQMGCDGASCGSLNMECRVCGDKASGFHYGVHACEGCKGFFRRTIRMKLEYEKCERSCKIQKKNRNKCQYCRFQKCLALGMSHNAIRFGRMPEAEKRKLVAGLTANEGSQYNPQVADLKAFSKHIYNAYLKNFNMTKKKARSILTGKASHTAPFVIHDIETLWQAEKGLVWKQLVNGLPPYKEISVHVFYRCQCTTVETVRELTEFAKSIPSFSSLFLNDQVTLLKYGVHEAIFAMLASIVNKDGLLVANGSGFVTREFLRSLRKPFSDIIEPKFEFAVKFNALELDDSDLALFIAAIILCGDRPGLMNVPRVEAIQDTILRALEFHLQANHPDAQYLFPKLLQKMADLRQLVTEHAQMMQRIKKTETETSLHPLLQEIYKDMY

[4] = molecular target: T3, Peroxisome proliferator-activated receptor delta; assay: Agonist activity against human Peroxisome proliferator activated receptor delta in CV-1 cell was determined; type: functional, cell-based
[5] = molecular target: T1, Peroxisome proliferator-activated receptor alpha; assay: Agonist activity against human Peroxisome proliferator activated receptor alpha in CV-1 cell was determined; type: functional, cell-based
[6] = molecular target: T2, Peroxisome proliferator-activated receptor gamma; assay: Agonist activity against human peroxisome proliferator activated receptor gamma in CV-1 cell was determined; type: functional, cell-based
[7] = molecular target: T2, Peroxisome proliferator-activated receptor gamma; assay: Agonist activity against human peroxisome proliferator activated receptor gamma was determined; type: functional
[8] = molecular target: T1, Peroxisome proliferator-activated receptor alpha; assay: Agonist activity against human Peroxisome proliferator activated receptor alpha was determined; type: functional
[9] = molecular target: T4, Peroxisome proliferator-activated receptor delta (Homo sapiens) (UniProt Q03181); assay: Percent activation for human Peroxisome proliferator activated receptor delta; type: functional
T4 sequence (whole entry): T3 sequence (Q03181 whole entry)

Structure (SMILES) | EC50 [1] [nM] | EC50 [2] [nM] | EC50 [3] [nM] | other results
CC(C)OC(Cc1ccc(OCCc2noc(-c3ccc(F)cc3)n2)cc1)C(=O)O (stereo not drawn) | 790 | 40 |  | 
Cc1cccc(-c2nc(COc3ccc(CC(OC(C)C)C(=O)O)cc3)no2)c1 (stereo not drawn) | 79 | 50 | 1600 | 
CC(C)OC(Cc1ccc(OCCc2noc(-c3cccc(F)c3)n2)cc1)C(=O)O (stereo not drawn) | 500 | 2 | 4000 | 
CC(C)OC(Cc1ccc(OCc2noc(-c3ccc(C(C)(C)C)cc3)n2)cc1)C(=O)O (stereo not drawn) | 40 | 3 | 5000 | 
CC(C)OC(Cc1ccc(OCc2noc(-c3cc(C(F)(F)F)cc(C(F)(F)F)c3)n2)cc1)C(=O)O (stereo not drawn) | 6 | 32 | 320 | 
CC(C)OC(Cc1ccc(OCCc2noc(-c3ccccc3C(F)(F)F)n2)cc1)C(=O)O (stereo not drawn) |  |  |  | EC50 [4]: 2500 nM; EC50 [5]: 400 nM; EC50 [6]: 160 nM
CC(C)OC(Cc1ccc(OCCc2noc(-c3cc(C(F)(F)F)cc(C(F)(F)F)c3)n2)cc1)C(=O)O (stereo not drawn) |  |  |  | EC50 [7]: 4 nM; EC50 [8]: 50 nM; Activation [9]: < 40%
CC(C)OC(Cc1ccc(OCCc2noc(-c3ccc(Cl)cc3)n2)cc1)C(=O)O (stereo not drawn) | 400 | 25 |  | 
CC(C)OC(Cc1ccc(OCc2noc(-c3ccc(OC(F)(F)F)cc3)n2)cc1)C(=O)O (stereo not drawn) | 20 | 63 | 7900 | 
CC(C)OC(Cc1ccc(OCc2noc(-c3ccc(C(C)C)cc3)n2)cc1)C(=O)O (stereo not drawn) | 13 | 4 | 7900 | 
CC(C)OC(Cc1ccc(OCCc2noc(-c3ccccc3)n2)cc1)C(=O)O (stereo not drawn) | 2000 | 13 |  | 
CC(C)OC(Cc1ccc(OCc2noc(C3CCCCC3)n2)cc1)C(=O)O (stereo not drawn) | 240 | 230 |  | 
Cc1ccc(-c2nc(COc3ccc(CC(OC(C)C)C(=O)O)cc3)no2)cc1 (stereo not drawn) | 25 | 16 | 2500 | 
CC(C)OC(Cc1ccc(OCc2noc(-c3cccc(F)c3)n2)cc1)C(=O)O (stereo not drawn) | 79 | 100 | 7900 | 
CC(C)OC(Cc1ccc(OCCc2noc(-c3cccc(C(F)(F)F)c3)n2)cc1)C(=O)O (stereo not drawn) | 200 | 6 | 500 | 
CC(C)OC(Cc1ccc(OCc2noc(-c3cc(C(F)(F)F)cc(C(F)(F)F)c3)n2)cc1)C(=O)O (stereo in doubt; -1n) [listing 1 of 2 here] |  |  |  | Activation [9]: 40%
CC(C)OC(Cc1ccc(OCc2noc(-c3ccc(Br)cc3)n2)cc1)C(=O)O (stereo not drawn) | 40 | 32 | 790 | 
CC(C)OC(Cc1ccc(OCc2noc(-c3ccc(F)cc3)n2)cc1)C(=O)O (stereo not drawn) | 160 | 200 | 7900 | 
Cc1ccccc1-c1nc(COc2ccc(CC(OC(C)C)C(=O)O)cc2)no1 (stereo not drawn) | 40 | 100 | 1600 | 
CC(C)OC(Cc1ccc(OCc2noc(-c3ccccc3)n2)cc1)C(=O)O (stereo not drawn) | 160 | 79 | 10000 | 
CC(C)OC(Cc1ccc(OCCc2noc(-c3cccc(Cl)c3)n2)cc1)C(=O)O (stereo not drawn) | 320 | 4 | 100 | 
CC(C)OC(Cc1ccc(OCc2noc(-c3cc(F)cc(F)c3)n2)cc1)C(=O)O (stereo not drawn) | 40 | 100 | 160 | 
CC(C)OC(Cc1ccc(OCc2noc(-c3cc(C(F)(F)F)cc(C(F)(F)F)c3)n2)cc1)C(=O)O (stereo in doubt; -1n) [listing 2 of 2 here] |  |  |  | EC50 [4]: 630 nM; EC50 [5]: 4 nM; EC50 [6]: 32 nM
CC(C)OC(Cc1ccc(OCc2noc(-c3ccc(Cl)cc3)n2)cc1)C(=O)O (stereo not drawn) | 13 | 20 | 500 | 
CC(C)OC(Cc1ccc(OCc2noc(-c3cc(C(F)(F)F)cc(C(F)(F)F)c3)n2)cc1)C(=O)O (stereo in doubt; (+)1n) [listing 1 of 2 here] |  |  |  | Activation [9]: 40%
CC(C)OC(Cc1ccc(OCc2noc(-c3cc(C(F)(F)F)cc(C(F)(F)F)c3)n2)cc1)C(=O)O (stereo in doubt; (+)1n) [listing 2 of 2 here] |  |  |  | EC50 [4]: 790 nM; EC50 [5]: 2500 nM; EC50 [6]: 630 nM
CC(C)OC(Cc1ccc(OCc2noc(-c3ccc(C(F)(F)F)cc3)n2)cc1)C(=O)O (stereo not drawn) | 32 | 25 | 500 | 
